Data as given in ChEMBL document CHEMBL1201862, “PubChem BioAssay data set” (2004).
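Cells were grown in 96-well plates and exposed to each compound for 48 hours at five concentrations; endpoints were interpolated linearly between bracketing concentrations, or set to the highest concentration if not reached. Here, GI50 denotes the concentration required for 50% inhibition of growth.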 Activity calls are given as the source filed them. Rule as the data show it: active = GI50 up to about 1.1 µM and inactive = higher.

What was measured:
Experiment in all cases: NCI-60 cell line screen, 48 h
A498 = test system: A498
A549 = test system: A549
BT-549 = test system: BT-549
CAKI-1 = test system: CAKI-1
CCRF-CEM = test system: CCRF-CEM
COLO 205 = test system: COLO 205
DU-145 = test system: DU-145
EKVX = test system: EKVX
HCC 2998 = test system: HCC 2998
HCT-116 = test system: HCT-116
HCT-15 = test system: HCT-15
HL-60 = test system: HL-60
HOP-62 = test system: HOP-62
HOP-92 = test system: HOP-92
HT-29 = test system: HT-29
Hs-578T = test system: Hs-578T
IGROV-1 = test system: IGROV-1
K562 = test system: K562
LOX IMVI = test system: LOX IMVI
M14 = test system: M14
MCF7 = test system: MCF7
MDA-MB-231 = test system: MDA-MB-231
MDA-MB-435 = test system: MDA-MB-435
MDA-N = test system: MDA-N
MOLT-4 = test system: MOLT-4
Malme-3M = test system: Malme-3M
NCI-H226 = test system: NCI-H226
NCI-H23 = test system: NCI-H23
NCI-H460 = test system: NCI-H460
NCI/ADR-RES = test system: NCI/ADR-RES
OVCAR-3 = test system: OVCAR-3
OVCAR-4 = test system: OVCAR-4
OVCAR-5 = test system: OVCAR-5
OVCAR-8 = test system: OVCAR-8
PC-3 = test system: PC-3
RXF 393 = test system: RXF 393
SF-268 = test system: SF-268
SF-295 = test system: SF-295
SF-539 = test system: SF-539
SK-MEL-28 = test system: SK-MEL-28
SK-MEL-2 = test system: SK-MEL-2
SK-MEL-5 = test system: SK-MEL-5
SK-OV-3 = test system: SK-OV-3
SN12C = test system: SN12C
SNB-75 = test system: SNB-75
SR = test system: SR
SW-620 = test system: SW-620
T47D = test system: T47D
TK-10 = test system: TK-10
U-251 = test system: U-251
UACC-257 = test system: UACC-257
UACC-62 = test system: UACC-62
UO-31 = test system: UO-31
786-0 = test system: 786-0
ACHN = test system: ACHN
KM12 = test system: KM12
NCI-H522 = test system: NCI-H522
RPMI-8226 = test system: RPMI-8226
SNB-19 = test system: SNB-19

Measured: GI50

Nc1n[nH]c2c1Cc1c(n(Cc3ccc(Cl)cc3)c3ccccc13)C(=O)N2
4.12 µM: HCT-15
inactive: A498 13.7 µM | A549 17.8 µM | BT-549 16.5 µM | CAKI-1 11.4 µM | CCRF-CEM 8.38 µM | COLO 205 11.5 µM | DU-145 12 µM | EKVX 18.7 µM | HCC 2998 10.4 µM | HCT-116 8.15 µM | HL-60 3.03 µM | HOP-62 15 µM | HOP-92 12.9 µM | HT-29 16.1 µM | Hs-578T 13.3 µM | IGROV-1 12.5 µM | K562 2.65 µM | LOX IMVI 9.79 µM | M14 13.2 µM | MCF7 10.3 µM | MDA-MB-231 14.4 µM | MDA-MB-435 3.71 µM | MDA-N 2.78 µM | MOLT-4 5.66 µM | Malme-3M 14.7 µM | NCI-H226 11.1 µM | NCI-H23 10.6 µM | NCI-H460 14 µM | NCI/ADR-RES 19.9 µM | OVCAR-3 14.1 µM | OVCAR-4 13.8 µM | OVCAR-5 14.2 µM | OVCAR-8 16.5 µM | PC-3 11.2 µM | RXF 393 5.69 µM | SF-268 17.1 µM | SF-295 17.3 µM | SF-539 15.4 µM | SK-MEL-28 38.1 µM | SK-MEL-2 15.9 µM | SK-MEL-5 3.69 µM | SK-OV-3 18.1 µM | SN12C 14.5 µM | SNB-75 16.2 µM | SR 6.11 µM | SW-620 8.47 µM | T47D 12.3 µM | TK-10 15 µM | U-251 > 10 µM | UACC-257 18 µM | UACC-62 20.3 µM | UO-31 4.82 µM

NC1=C(Cl)C(=O)c2c(O)ccc(O)c2C1=O
active: Malme-3M 0.279 µM | SK-MEL-5 0.735 µM
inactive: 786-0 8.93 µM | A498 14.1 µM | A549 2.2 µM | ACHN 4.88 µM | BT-549 1.93 µM | CAKI-1 16.5 µM | CCRF-CEM 4.09 µM | COLO 205 1.69 µM | DU-145 2.2 µM | EKVX 12 µM | HCC 2998 2.84 µM | HCT-116 2.47 µM | HL-60 2.55 µM | HOP-62 5.36 µM | HOP-92 12.1 µM | HT-29 2.54 µM | Hs-578T 8.3 µM | IGROV-1 5.83 µM | K562 22.4 µM | KM12 2.92 µM | LOX IMVI 1.79 µM | M14 1.85 µM | MCF7 1.55 µM | MDA-MB-231 5.73 µM | MDA-MB-435 2.01 µM | MDA-N 1.77 µM | MOLT-4 6.98 µM | NCI-H226 11.6 µM | NCI-H23 2.05 µM | NCI-H460 1.91 µM | NCI-H522 14.6 µM | NCI/ADR-RES 3.61 µM | OVCAR-3 2.22 µM | OVCAR-4 4.11 µM | OVCAR-5 5.85 µM | OVCAR-8 3.82 µM | PC-3 3.47 µM | RPMI-8226 4.75 µM | RXF 393 7.45 µM | SF-268 3.83 µM | SF-295 2.1 µM | SF-539 2.84 µM | SK-MEL-28 2.39 µM | SK-MEL-2 4.72 µM | SK-OV-3 20.9 µM | SN12C 3.28 µM | SNB-19 3.89 µM | SNB-75 5.41 µM | SW-620 3.15 µM | T47D 7.24 µM | TK-10 15.2 µM | U-251 4.12 µM | UACC-257 1.6 µM | UACC-62 1.59 µM | UO-31 9.06 µM
3.37 µM: HCT-15

C=CCSC(C)=O
> 100 µM: HCT-15
inactive: 786-0 > 100 µM | A498 > 100 µM | A549 > 100 µM | ACHN > 100 µM | BT-549 > 100 µM | CAKI-1 > 100 µM | CCRF-CEM > 100 µM | COLO 205 > 100 µM | DU-145 > 100 µM | EKVX > 100 µM | HCC 2998 > 100 µM | HCT-116 > 100 µM | HL-60 > 100 µM | HOP-62 > 100 µM | HT-29 > 100 µM | Hs-578T > 100 µM | IGROV-1 > 100 µM | K562 > 100 µM | KM12 > 100 µM | LOX IMVI > 100 µM | M14 > 100 µM | MCF7 > 100 µM | MDA-MB-231 > 100 µM | MDA-MB-435 > 100 µM | MDA-N > 100 µM | MOLT-4 > 10 µM | Malme-3M > 100 µM | NCI-H226 > 100 µM | NCI-H23 > 100 µM | NCI-H460 > 100 µM | NCI-H522 98.9 µM | NCI/ADR-RES > 100 µM | OVCAR-3 > 100 µM | OVCAR-4 > 100 µM | OVCAR-5 > 100 µM | OVCAR-8 > 100 µM | PC-3 > 100 µM | RPMI-8226 > 100 µM | SF-268 > 100 µM | SF-295 > 100 µM | SF-539 > 100 µM | SK-MEL-28 > 100 µM | SK-MEL-2 > 100 µM | SK-MEL-5 > 100 µM | SK-OV-3 > 100 µM | SN12C > 100 µM | SNB-19 > 100 µM | SNB-75 > 100 µM | SR > 100 µM | SW-620 > 100 µM | T47D > 100 µM | TK-10 > 100 µM | U-251 > 100 µM | UACC-62 > 100 µM | UO-31 > 100 µM

COc1ccc(C2SC(=N)Nc3c2c(C)nn3C(=O)c2ccccc2O)cc1OC (centres undefined)
active: HOP-92 1.08 µM
4.78 µM: HCT-15
inactive: 786-0 7.1 µM | A498 5.93 µM | A549 3.4 µM | ACHN 3.91 µM | BT-549 8.91 µM | CAKI-1 6.59 µM | CCRF-CEM 4.93 µM | COLO 205 > 10 µM | DU-145 4.3 µM | EKVX > 10 µM | HCT-116 2.37 µM | HL-60 2.16 µM | HOP-62 6.92 µM | HT-29 > 10 µM | Hs-578T 1.56 µM | IGROV-1 4.71 µM | K562 3.53 µM | KM12 6.55 µM | LOX IMVI 4.58 µM | M14 7.11 µM | MCF7 3.3 µM | MDA-MB-231 7.5 µM | MDA-MB-435 2.81 µM | MDA-N 6.08 µM | MOLT-4 4.06 µM | Malme-3M 6.3 µM | NCI-H226 4.32 µM | NCI-H23 3.52 µM | NCI-H460 4.68 µM | NCI/ADR-RES 5.52 µM | OVCAR-3 > 10 µM | OVCAR-4 7.93 µM | OVCAR-5 > 10 µM | PC-3 4.5 µM | RPMI-8226 6.28 µM | RXF 393 3.61 µM | SF-268 5.32 µM | SF-295 5.69 µM | SF-539 2.84 µM | SK-MEL-28 9.51 µM | SK-MEL-2 4.26 µM | SK-OV-3 2.54 µM | SN12C 5.98 µM | SNB-19 5.42 µM | SNB-75 3.09 µM | SR 4.75 µM | SW-620 > 10 µM | T47D 3.18 µM | TK-10 > 10 µM | U-251 4.5 µM | UACC-257 > 10 µM | UACC-62 2.64 µM | UO-31 4.61 µM

NC(=O)NC(=O)CCC(NS(=O)(=O)c1ccccc1)C(=O)NC(N)=O (centres undefined)
inactive: 786-0 > 100 µM | A498 > 100 µM | A549 > 100 µM | ACHN > 100 µM | BT-549 > 100 µM | CAKI-1 > 100 µM | CCRF-CEM > 100 µM | COLO 205 > 100 µM | DU-145 > 100 µM | EKVX > 100 µM | HCC 2998 > 100 µM | HCT-116 > 100 µM | HL-60 > 100 µM | HOP-62 > 100 µM | HOP-92 > 100 µM | HT-29 > 100 µM | Hs-578T > 100 µM | IGROV-1 > 100 µM | K562 > 100 µM | KM12 > 100 µM | LOX IMVI > 100 µM | M14 > 100 µM | MCF7 > 100 µM | MDA-MB-231 > 100 µM | MDA-MB-435 > 100 µM | MDA-N > 100 µM | MOLT-4 > 100 µM | Malme-3M > 100 µM | NCI-H226 > 100 µM | NCI-H23 > 100 µM | NCI-H460 > 100 µM | NCI-H522 > 100 µM | NCI/ADR-RES > 100 µM | OVCAR-3 > 100 µM | OVCAR-4 > 100 µM | OVCAR-5 > 100 µM | OVCAR-8 > 100 µM | PC-3 > 100 µM | SF-268 > 100 µM | SF-295 > 100 µM | SF-539 > 100 µM | SK-MEL-28 > 100 µM | SK-MEL-2 > 100 µM | SK-MEL-5 > 100 µM | SK-OV-3 > 100 µM | SN12C > 100 µM | SNB-19 > 100 µM | SNB-75 > 100 µM | SR > 100 µM | SW-620 > 100 µM | T47D > 100 µM | TK-10 > 100 µM | U-251 > 100 µM | UACC-257 > 100 µM | UACC-62 > 100 µM | UO-31 > 100 µM
> 100 µM: HCT-15
